From US11667649B2, “Heteroaromatic macrocyclic ether chemotherapeutic agents” (Nuvalent, Inc., priority 2020, dated 2023)

Experiments:
[1] = target: T1, ALK-wt kinase domain (Homo sapiens, UniProt Q9UM73); assay: Biochemical kinase assay, ALK-wt; conditions: 2 mM ATP substrate solution, read-out: Ki^app ALK-wt
T1 construct: TRKA-wt (1 nM, BPS Bio, 40280) kinase domains in buffer; purchased Carna 08-518
Method: (§1) First, 250 nL of compound dissolved in DMSO (100-fold of the desired concentration) was dispensed into a 384-well plate. A 12.5 μL substrate solution containing ATP (2 mM) and fluorogenic phosphorylation substrate AQT0101 (26 μM for ALK and ROS1, AssayQuant) or AQT0104 (26 μM for TRKA, AssayQuant) in buffer (50 mM HEPES pH 7.5, 0.01% Brij-35, 0.5 mM EGTA, 10 mM MgCl2) was added and mixed thoroughly. Then, a 12.5 μL kinase solution containing ALK-wt (1.5 nM, Carna, 08-518), ALK ALK L1196M/G1202R (3 nM, SignalChem, A19-12NG), ROS1-wt (0.6 nM, Carna, 08-163), ROS1-G2032R (0.5 nM, SignalChem, R14-12BG), or TRKA-wt (1 nM, BPS Bio, 40280) kinase domains in buffer ([…] HEPES pH 7.5, 0.01% Brij-35, 2% glycerol, 0.4 mg/mL BSA, 0.5 mM EGTA, and 10 mM MgCl2) was added and mixed thoroughly. The plate was sealed and read by SpectraMax Paradigm at λ=485 nm every 2 minutes for 120 minutes at 30° C. Initial rates of reaction (v) were calculated from the change in fluorescence intensity over time during the initial, linear portion of the reaction. Finally, apparent inhibitory constants (Ki^app) were determined from regression of v and I (inhibitor concentration) to Morrison Equation (E=enzyme concentration): […]

[2] = target: T2, TRKA-wt kinase domain (Homo sapiens, UniProt P04629); assay: Biochemical kinase assay, TRKA-wt; conditions: 2 mM ATP substrate solution, read-out: Ki^app TRKA-wt
T2 construct: TRKA-wt (1 nM, BPS Bio, 40280) kinase domains in buffer; purchased BPS Bio 40280
Method: as §1

[3] = target: T3, ROS1-G2032R kinase domain (Homo sapiens, UniProt P08922, G2032R); assay: Biochemical kinase assay, ROS1-G2032R; conditions: 2 mM ATP substrate solution, read-out: Ki^app ROS1-G2032R
T3 construct: TRKA-wt (1 nM, BPS Bio, 40280) kinase domains in buffer; purchased SignalChem R14-12BG
Method: as §1

[4] = target: T4, ROS1-wt kinase domain (Homo sapiens, UniProt P08922); assay: Biochemical kinase assay, ROS1-wt; conditions: 2 mM ATP substrate solution, read-out: Ki^app ROS1-wt
T4 construct: TRKA-wt (1 nM, BPS Bio, 40280) kinase domains in buffer; purchased Carna 08-163
Method: as §1

[5] = target: T5, ALK L1196M/G1202R kinase domain (Homo sapiens, UniProt Q9UM73, G1202R/L1196M); assay: Biochemical kinase assay, ALK L1196M/G1202R; conditions: 2 mM ATP substrate solution, read-out: Ki^app ALK-L1196M-G1202R
T5 construct: TRKA-wt (1 nM, BPS Bio, 40280) kinase domains in buffer; purchased SignalChem A19-12NG
Method: as §1

Row | Ki [1] [nM] | Ki [2] [nM] | Ki [3] [nM] | Ki [4] [nM] | Ki [5] [nM] | SMILES
1 | < 50 | < 50 | < 50 | < 50 | < 50 | CCn1ncc2c1-c1cnc(N)c(c1)O[C@H](C)c1cc(F)ccc1-c1nn(C)c(C)c1C2 [Compound 87]
2 | < 50 | 50 to 500 | < 50 | < 50 | < 50 | C[C@H]1Oc2cc(cnc2N)-c2c(cnn2CC2CC2)Cc2cn(C)nc2-c2ccc(F)cc21 [Compound 121]
3 | 50 to 500 | > 500 | > 500 | 50 to 500 | > 500 | Cc1cc2n(n1)-c1ccc(F)cc1[C@@H](C)Oc1cc(cnc1N)-c1c(C#N)ncn1C2 [Compound 61]
4 | < 50 | 50 to 500 | < 50 | < 50 | < 50 | Cc1nc2c(s1)Cc1cnn(C(F)F)c1-c1cnc(N)c(c1)O[C@H](C)c1cc(F)ccc1-2 [Compound 72]
5 | < 50 | 50 to 500 | < 50 | < 50 | < 50 | CCn1nc(C#N)c2c1-c1cnc(N)c(c1)O[C@H](C)c1cc(F)ccc1-c1nn(C)cc1C2 [Compound 156]
6 | < 50 | > 500 | 50 to 500 | < 50 | 50 to 500 | CC1Oc2cc(cnc2N)-c2c(C#N)cnn2Cc2cnn(C)c2-c2ccc(F)cc21 (stereo not drawn) [Compound 60]
7 | < 50 | < 50 | < 50 | < 50 | < 50 | CCc1nn(CC)c2c1Cc1cn(C)nc1-c1ccc(F)cc1[C@@H](C)Oc1cc-2cnc1N [Compound 158]
8 | < 50 | < 50 | < 50 | < 50 | < 50 | CCn1ncc2c1-c1cnc(N)c(c1)O[C@H](C)c1cc(F)ccc1-c1ncccc1C2 [Compound 3]
9 | < 50 | > 500 | < 50 | < 50 | < 50 | C[C@H]1Oc2cc(cnc2N)-c2c(c(Cl)nn2CC(F)F)Cc2cn(C)nc2-c2ccc(F)cc21 [Compound 83]
10 | < 50 | 50 to 500 | < 50 | < 50 | < 50 | CCn1ncc2c1-c1cnc(N)c(c1)OC(C)c1cc(F)ccc1-c1ccncc1C2 (stereo not drawn) [Compound 36]
11 | < 50 | 50 to 500 | < 50 | < 50 | < 50 | C[C@H]1Oc2cc(cnc2N)-c2c(cnn2C2COC2)Cc2cn(C)nc2-c2ccc(F)cc21 [Compound 139]
12 | < 50 | > 500 | < 50 | < 50 | < 50 | C[C@H]1Oc2cc(cnc2N)-c2c(C#N)nn(C)c2Cc2cc(C(F)(F)F)nn2-c2ccc(F)cc21 [Compound 104]
13 | < 50 | 50 to 500 | < 50 | < 50 | < 50 | C[C@H]1Oc2cc(cnc2N)-c2c(CC3CC3)nn(C)c2Cc2cn(C)nc2-c2ccc(F)cc21 [Compound 178]
14 | < 50 | 50 to 500 | < 50 | < 50 | < 50 | CCn1nnc2c1-c1cnc(N)c(c1)O[C@H](C)c1cc(F)ccc1-c1ncc(F)cc1C2 [Compound 70]
15 | < 50 | < 50 | < 50 | < 50 | < 50 | CCc1noc2c1-c1cnc(N)c(c1)O[C@H](C)c1cc(F)ccc1-c1nn(C)cc1C2 [Compound 19]
16 | < 50 | > 500 |  |  | < 50 | C[C@H]1Oc2cc(cnc2N)-c2c(cnn2CC2(C)CC2)Cc2cn(C)nc2-c2ccc(F)cc21 [Compound 159]
17 | < 50 | < 50 | < 50 | < 50 | < 50 | C[C@H]1Oc2cc(cnc2N)-c2c(nn(C)c2C#N)Cc2ccnn2-c2ccc(F)cc21 [Compound 169]
18 | < 50 | 50 to 500 | < 50 | < 50 | < 50 | C[C@H]1Oc2cc(cnc2N)-c2c(nnn2CC2CC2)Cc2cccnc2-c2ccc(F)cc21 [Compound 116]

Row | Ki [1] [nM] | Ki [2] [nM] | Ki [3] [nM] | Ki [4] [nM] | Ki [5] [nM] | SMILES
19 | < 50 | < 50 | < 50 | < 50 | < 50 | CCn1nc(Cl)c2c1-c1cnc(N)c(c1)O[C@H](C)c1cc(F)ccc1-n1nc(C)cc1C2 [Compound 76]
20 | < 50 | > 500 | < 50 | < 50 | < 50 | C[C@H]1Oc2cc(cnc2N)-c2c(cnn2CC(F)F)Cc2cc(C(F)(F)F)nn2-c2ccc(F)cc21 [Compound 84]
21 | < 50 | 50 to 500 | < 50 | < 50 | < 50 | CCn1ncc2c1-c1cnc(N)c(c1)OC(C)c1cc(F)ccc1-c1ncncc1C2 (stereo not drawn) [Compound 42]
22 | < 50 | > 500 | < 50 | < 50 | < 50 | Cc1cc2n(n1)-c1ccc(F)cc1COc1cc(cnc1N)-c1c(cnn1CC1CC1)C2 [Compound 126]
23 | < 50 | 50 to 500 | < 50 | < 50 | < 50 | C[C@H]1Oc2cc(cnc2N)-c2c(nnn2CC2CC2)Cc2cc(Cl)nn2-c2ccc(F)cc21 [Compound 108]
24 | < 50 | 50 to 500 | < 50 | < 50 | < 50 | Cc1nc2c(s1)Cn1ncc(C(F)F)c1-c1cnc(N)c(c1)O[C@H](C)c1cc(F)ccc1-2 [Compound 68]
25 | < 50 | > 500 | 50 to 500 | < 50 | 50 to 500 | CCn1ncc2c1-c1cnc(N)c(c1)OCc1cc(F)ccc1-c1nn(C)cc1C2 [Compound 49]
26 | < 50 | > 500 | < 50 | < 50 | < 50 | C[C@H]1Oc2cc(cnc2N)-c2c(C#N)noc2Cc2cn(C)nc2-c2ccc(F)cc21 [Compound 15]
27 | < 50 | 50 to 500 | 50 to 500 | < 50 | 50 to 500 | CCn1ncc2c1-c1ccc(F)cc1C(C)Oc1nc(cnc1N)-c1c(cnn1C)C2 (stereo not drawn) [Compound 165]
28 | < 50 | > 500 | 50 to 500 | < 50 | 50 to 500 | C[C@H]1Oc2cc(cnc2N)-c2c(C#N)nnn2Cc2cccnc2-c2ccc(F)cc21 [Compound 25]
29 | < 50 | < 50 | < 50 | < 50 | < 50 | CCn1ncc2c1-c1cnc(N)c(c1)O[C@H](C)c1cc(F)ccc1-c1nc(C)cn1C2 [Compound 45]
30 | < 50 | < 50 | < 50 |  | < 50 | CCn1ncc2c1-c1cnc(N)c(c1)O[C@H](C)c1cc(F)ccc1-n1ncc(F)c1C2 [Compound 46]
31 | < 50 | 50 to 500 | < 50 | < 50 | < 50 | CCn1nnc2c1-c1cnc(N)c(c1)O[C@H](C)c1cc(F)ccc1-c1sncc1C2 [Compound 93]
32 | < 50 | > 500 | < 50 | < 50 | < 50 | Cc1nn(CC2CC2)c2c1Cc1c(nn(C)c1Cl)-c1ccc(F)cc1[C@@H](C)Oc1cc-2cnc1N [Compound 54]
33 | < 50 | < 50 | < 50 | < 50 | < 50 | CCn1ncc2c1-c1cnc(N)c(c1)O[C@H](C)c1cc(F)ccc1-c1nn(C)c(Cl)c1C2 [Compound 28]
34 | < 50 | 50 to 500 | < 50 | < 50 | < 50 | C[C@H]1Oc2cc(cnc2N)-c2c(cnn2CC2CC2)Cc2cc(C(F)(F)F)nn2-c2ccc(F)cc21 [Compound 91]
35 | < 50 | > 500 | 50 to 500 | < 50 | < 50 | C[C@H]1Oc2cc(cnc2N)-c2c(C#N)cnn2Cc2ccnn2-c2ccc(F)cc21 [Compound 62]
36 |  | < 50 |  |  | < 50 | CCc1nn(C)c2c1-c1cnc(N)c(c1)O[C@H](C)c1cc(F)ccc1-c1nc(C)sc1C2 [Compound 173]
